Values of other authors, collected in US10106516B2, “PDE10 inhibitors and related compositions and methods” (Omeros Corporation, priority 2010, dated 2018).

Assays:
PDE10 [1] = conditions: Soderling and Beavo 2000, read-out: IC50 (50% inhibitory concentration); cited from earlier work
PDE10 [2] = conditions: PDE10, in vitro binding studies; read-out: dissociation constant (Kd) for cGMP binding; cited from earlier work

Q: For `CC(C)Cn1c(=O)n(C)c(=O)c2[nH]cnc21` [IBMX], which IC50 (PDE10 [1]) is on record?
A: Its IC50 is 2600 nM.

Q: For `Nc1nc2c(ncn2[C@@H]2O[C@@H]3COP(=O)(O)O[C@H]3[C@H]2O)c(=O)[nH]1` [cGMP], which Kd (PDE10 [2]) is on record?
A: Its Kd is greater than 9000 nM.
